Results on 21 compounds are retold here after patent US10428067B2, “Compounds and methods for kinase modulation” (Plexxikon Inc., priority 2017, dated 2019).

Test [1] deals with quizartinib resistance-causing mutants of FLT3-ITD. As to conditions: all identified quizartinib resistance-causing mutants and other mutant isoforms (Smith et al.); cited from earlier work.
The target of a further test is TGFβR2 (Homo sapiens, UniProt P37173). Put plainly: Biochemical TGFβR2 assay (LanthaScreen Europium Kinase Binding Assay). To be noted: geometric mean; tracer displacement, five concentrations 1.0-0.0039 μM in duplicate; read-out: TGFBR2 GMean: IC50 (μM) (Biochemical Assay). The method, then: The IC50 of certain compounds in this disclosure against TGFβR2 was conducted under contract at Thermo Fisher Scientific, Life Sciences Solutions as part of their SelectScreen™ profiling service. The TGFβR2 assay used the LanthaScreen® Europium Kinase Binding Assay. Binding of an Alexa Fluor® conjugate Tracer 199 (100 nM) to TGFβR2 (5 nM) was detected by addition of a Eu-labeled anti-tag antibody (5 nM) in Kinase Buffer A (50 mM HEPES pH 7.5, 0.01% BRIJ-35, 10 mM MgCl2, 1 mM EGTA) and 1% final DMSO. […] The percent inhibition was calculated from the emission ratio of Alexa Fluor® and Europium as documented by Thermo Fisher (www.thermofisher.com/kinaseprofiling). The IC50 of certain compounds in this disclosure was determined by testing a dilution series of the compound in duplicate at five concentrations (1.0, 0.25, 0.062, 0.015 and 0.0039 μM) by fitting the inhibition data with a sigmoidal curve fit model.
Table II provides data indicating TGFBR2 biochemical inhibitory activities for exemplary compounds as described herein.

Another test concerns the target T1, FLT3 D835Y (Homo sapiens, UniProt P36888, D835Y).
T1 sequence (P36888 27-993 D835Y): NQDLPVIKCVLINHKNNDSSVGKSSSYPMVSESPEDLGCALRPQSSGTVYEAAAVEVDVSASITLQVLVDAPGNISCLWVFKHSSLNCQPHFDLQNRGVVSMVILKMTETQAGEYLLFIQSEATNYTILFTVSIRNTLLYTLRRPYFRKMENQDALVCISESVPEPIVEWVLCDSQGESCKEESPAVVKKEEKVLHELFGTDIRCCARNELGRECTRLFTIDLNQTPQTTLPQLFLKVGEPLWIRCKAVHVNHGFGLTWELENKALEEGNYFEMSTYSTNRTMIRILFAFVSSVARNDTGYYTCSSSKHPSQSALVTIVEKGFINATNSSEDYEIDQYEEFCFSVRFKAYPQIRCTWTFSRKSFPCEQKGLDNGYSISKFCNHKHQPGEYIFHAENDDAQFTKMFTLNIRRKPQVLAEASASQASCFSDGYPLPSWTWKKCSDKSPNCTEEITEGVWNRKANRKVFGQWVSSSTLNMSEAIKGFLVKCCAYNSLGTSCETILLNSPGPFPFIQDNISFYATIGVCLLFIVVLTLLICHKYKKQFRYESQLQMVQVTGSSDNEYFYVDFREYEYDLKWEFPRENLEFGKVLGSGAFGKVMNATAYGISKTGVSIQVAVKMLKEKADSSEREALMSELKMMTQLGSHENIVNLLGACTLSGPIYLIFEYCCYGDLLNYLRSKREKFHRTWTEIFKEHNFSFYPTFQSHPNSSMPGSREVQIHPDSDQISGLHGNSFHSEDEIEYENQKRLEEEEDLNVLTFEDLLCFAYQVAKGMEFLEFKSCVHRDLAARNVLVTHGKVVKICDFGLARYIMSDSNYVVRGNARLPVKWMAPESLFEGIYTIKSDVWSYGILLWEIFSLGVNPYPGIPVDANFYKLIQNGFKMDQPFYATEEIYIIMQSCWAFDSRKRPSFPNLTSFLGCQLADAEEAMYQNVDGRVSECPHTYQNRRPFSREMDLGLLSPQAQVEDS
Put plainly: Biochemical FLT3 D835Y assay. To be noted: geometric mean; assay as in US2017/0267660; read-out: FLT3 D835Y GMean: IC50 (μM) (Biochemical Assay). How it is done: FLT3 D835Y assays were conducted on certain compounds of this disclosure as described in U.S. Patent Publication No. US2017/0267660.
Table II provides data indicating FLT3 D835Y biochemical inhibitory activities for exemplary compounds as described herein.

TGFβR2, sequence (P37173 23-567): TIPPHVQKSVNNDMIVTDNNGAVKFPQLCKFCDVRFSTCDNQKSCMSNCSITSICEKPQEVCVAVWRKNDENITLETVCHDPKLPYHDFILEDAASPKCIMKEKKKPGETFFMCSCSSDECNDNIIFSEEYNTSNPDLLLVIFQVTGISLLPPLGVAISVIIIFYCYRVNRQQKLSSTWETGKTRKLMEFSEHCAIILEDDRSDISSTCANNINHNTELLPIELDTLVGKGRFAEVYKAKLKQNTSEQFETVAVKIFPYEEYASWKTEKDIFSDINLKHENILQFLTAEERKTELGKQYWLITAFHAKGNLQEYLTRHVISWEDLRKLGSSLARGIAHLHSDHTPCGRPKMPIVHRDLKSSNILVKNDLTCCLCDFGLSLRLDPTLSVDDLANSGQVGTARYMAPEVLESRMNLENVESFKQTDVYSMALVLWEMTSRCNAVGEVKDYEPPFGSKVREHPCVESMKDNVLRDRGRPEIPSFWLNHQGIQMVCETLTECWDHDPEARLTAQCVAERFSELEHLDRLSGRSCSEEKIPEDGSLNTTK

For the compound `CNC(=O)c1cc(Oc2ccc(NC(=O)Nc3ccc(Cl)c(C(F)(F)F)c3)cc2)ccn1` [sorafenib], the “activity against quizartinib resistance-causing mutants” value in test [1] is reported as “ineffective”.

For `N#CC1(NC(=O)c2cccc(-c3cnc4[nH]c(-c5cnn(C(F)F)c5)cc4c3)n2)CC1` [P-006, N-(1-cyanocyclopropyl)-6-(2-(1-(difluoromethyl)-1H-pyrazol-4-yl)-1H-pyrrolo[2,3-b]pyridin-5-yl)picolinamide], the IC50 on TGFβR2 and on FLT3 D835Y was 0.0001 to 10 µM throughout.

In the case of `O=C(NC1CC(O)C1)c1cccc(-c2cnc3[nH]c(-c4cnn(C(F)F)c4)cc3c2)n1` (centres unmarked) [P-009, 6-(2-(1-(difluoromethyl)-1H-pyrazol-4-yl)-1H-pyrrolo[2,3-b]pyridin-5-yl)-N-(3-hydroxycyclobutyl)picolinamide], the IC50 at TGFβR2 and on FLT3 D835Y was 0.0001 to 10 µM in each case.

For `O=C(Nc1ccn[nH]1)c1cccc(-c2cnc3[nH]c(-c4cnn(C(F)F)c4)cc3c2)n1` [P-018, 6-(2-(1-(difluoromethyl)-1H-pyrazol-4-yl)-1H-pyrrolo[2,3-b]pyridin-5-yl)-N-(1H-pyrazol-5-yl)picolinamide], the IC50 at TGFβR2 and at FLT3 D835Y was 0.0001 to 10 µM throughout.

Consider `N#CC1(NC(=O)c2cccc(-c3cnc4[nH]c(-c5cnn(C(F)F)c5)cc4c3)n2)CCC1` [P-007, N-(1-cyanocyclobutyl)-6-(2-(1-(difluoromethyl)-1H-pyrazol-4-yl)-1H-pyrrolo[2,3-b]pyridin-5-yl)picolinamide], for which the IC50 at TGFβR2 and on FLT3 D835Y was 0.0001 to 10 µM throughout.

As for `CC(C)(C#N)NC(=O)c1cccc(-c2cnc3[nH]c(-c4cnn(C(F)F)c4)c(F)c3c2)n1` [P-004, N-(1-cyano-1-methyl-ethyl)-6-[2-[1-(difluoromethyl)pyrazol-4-yl]-3-fluoro-1H-pyrrolo[2,3-b]pyridin-5-yl]pyridine-2-carboxamide], the IC50 on TGFβR2 and at FLT3 D835Y was 0.0001 to 10 µM throughout.

Regarding `O=C(Nc1nnc[nH]1)c1cccc(-c2cnc3[nH]c(-c4cnn(C(F)F)c4)cc3c2)n1` [P-019, 6-(2-(1-(difluoromethyl)-1H-pyrazol-4-yl)-1H-pyrrolo[2,3-b]pyridin-5-yl)-N-(4H-1,2,4-triazol-3-yl)picolinamide], the IC50 at TGFβR2 and at FLT3 D835Y was 0.0001 to 10 µM in each case.

Consider `O=C(NCC1(O)CC1)c1cccc(-c2cnc3[nH]c(-c4cnn(C(F)F)c4)cc3c2)n1` [P-012, 6-(2-(1-(difluoromethyl)-1H-pyrazol-4-yl)-1H-pyrrolo[2,3-b]pyridin-5-yl)-N-((1-hydroxycyclopropyl)methyl)picolinamide], for which the IC50 at TGFβR2 and on FLT3 D835Y was 0.0001 to 10 µM throughout.

On to `O=C(NC1CS(=O)(=O)C1)c1cccc(-c2cnc3[nH]c(-c4cnn(C(F)F)c4)cc3c2)n1` [P-010, 6-(2-(1-(difluoromethyl)-1H-pyrazol-4-yl)-1H-pyrrolo[2,3-b]pyridin-5-yl)-N-(1,1-dioxidothietan-3-yl)picolinamide], for which the IC50 on TGFβR2 and on FLT3 D835Y was 0.0001 to 10 µM throughout.

Regarding `CC(C)(C#N)NC(=O)c1cccc(-c2cnc3[nH]c(-c4c(F)nn(C(F)F)c4F)c(F)c3c2)n1` [P-003, N-(1-cyano-1-methyl-ethyl)-6-[2-[1-(difluoromethyl)-3,5-difluoro-pyrazol-4-yl]-3-fluoro-1H-pyrrolo[2,3-b]pyridin-5-yl]pyridine-2-carboxamide], the IC50 on TGFβR2 and at FLT3 D835Y was 0.0001 to 10 µM in each case.

`O=C(NCC1(O)CCC1)c1cccc(-c2cnc3[nH]c(-c4cnn(C(F)F)c4)cc3c2)n1` [P-013, 6-(2-(1-(difluoromethyl)-1H-pyrazol-4-yl)-1H-pyrrolo[2,3-b]pyridin-5-yl)-N-((1-hydroxycyclobutyl)methyl)picolinamide]: the IC50 at TGFβR2 and on FLT3 D835Y was 0.0001 to 10 µM each time.

With `CN1CC(NC(=O)c2cccc(-c3cnc4[nH]c(-c5cnn(C(F)F)c5)cc4c3)n2)C1` [P-015, 6-(2-(1-(difluoromethyl)-1H-pyrazol-4-yl)-1H-pyrrolo[2,3-b]pyridin-5-yl)-N-(1-methylazetidin-3-yl)picolinamide], the IC50 on TGFβR2 and on FLT3 D835Y was 0.0001 to 10 µM each time.

As to `CC(C)(C#N)NC(=O)c1cncc(-c2cnc3[nH]c(-c4cnn(C(F)F)c4)cc3c2)n1` [P-021, N-(2-cyanopropan-2-yl)-6-(2-(1-(difluoromethyl)-1H-pyrazol-4-yl)-1H-pyrrolo[2,3-b]pyridin-5-yl)pyrazine-2-carboxamide], the half-inhibitory concentration (IC50) on TGFβR2 and at FLT3 D835Y was 0.0001 to 10 µM throughout.

In the case of `N#CC1(CNC(=O)c2cccc(-c3cnc4[nH]c(-c5cnn(C(F)F)c5)cc4c3)n2)CC1` [P-008, N-((1-cyanocyclopropyl)methyl)-6-(2-(1-(difluoromethyl)-1H-pyrazol-4-yl)-1H-pyrrolo[2,3-b]pyridin-5-yl)picolinamide], the IC50 on TGFβR2 and at FLT3 D835Y was 0.0001 to 10 µM each time.

With `CC(C)(C#N)NC(=O)c1cccc(-c2cnc3[nH]c(-c4cnn(CC#N)c4)cc3c2)n1` [P-001, 6-(2-(1-(cyanomethyl)-1H-pyrazol-4-yl)-1H-pyrrolo[2,3-b]pyridin-5-yl)-N-(2-cyanopropan-2-yl)picolinamide], the concentration for half-maximal inhibition (IC50) at TGFβR2 and on FLT3 D835Y was 0.0001 to 10 µM each time.

As to `O=C(Nc1cnc[nH]1)c1cccc(-c2cnc3[nH]c(-c4cnn(C(F)F)c4)cc3c2)n1` [P-017, 6-(2-(1-(difluoromethyl)-1H-pyrazol-4-yl)-1H-pyrrolo[2,3-b]pyridin-5-yl)-N-(1H-imidazol-5-yl)picolinamide], the IC50 at TGFβR2 and on FLT3 D835Y was 0.0001 to 10 µM throughout.

For `CC(C)(O)CNC(=O)c1cccc(-c2cnc3[nH]c(-c4cnn(C(F)F)c4)cc3c2)n1` [P-011, 6-(2-(1-(difluoromethyl)-1H-pyrazol-4-yl)-1H-pyrrolo[2,3-b]pyridin-5-yl)-N-(2-hydroxy-2-methylpropyl)picolinamide], the IC50 on TGFβR2 and at FLT3 D835Y was 0.0001 to 10 µM in each case.

For the compound `CC(C)(C#N)NC(=O)c1cc(F)cc(-c2cnc3[nH]c(-c4cnn(C(F)F)c4)cc3c2)n1` [P-024, N-(2-cyanopropan-2-yl)-6-(2-(1-(difluoromethyl)-1H-pyrazol-4-yl)-1H-pyrrolo[2,3-b]pyridin-5-yl)-4-fluoropicolinamide], the IC50 on TGFβR2 and at FLT3 D835Y was 0.0001 to 10 µM in each case.

On to `O=C(NC1COC1)c1cccc(-c2cnc3[nH]c(-c4cnn(C(F)F)c4)cc3c2)n1` [P-014, 6-(2-(1-(difluoromethyl)-1H-pyrazol-4-yl)-1H-pyrrolo[2,3-b]pyridin-5-yl)-N-(oxetan-3-yl)picolinamide], for which the IC50 on TGFβR2 and on FLT3 D835Y was 0.0001 to 10 µM throughout.

With `O=C(Nc1ncc[nH]1)c1cccc(-c2cnc3[nH]c(-c4cnn(C(F)F)c4)cc3c2)n1` [P-016, 6-(2-(1-(difluoromethyl)-1H-pyrazol-4-yl)-1H-pyrrolo[2,3-b]pyridin-5-yl)-N-(1H-imidazol-2-yl)picolinamide], the IC50 at TGFβR2 and on FLT3 D835Y was 0.0001 to 10 µM throughout.

For the compound `CC(C)(C#N)NC(=O)c1cccc(-c2cnc3[nH]c(-c4cnn(C(F)F)c4)c(Br)c3c2)n1` [P-005, 6-[3-bromo-2-[1-(difluoromethyl)pyrazol-4-yl]-1H-pyrrolo[2,3-b]pyridin-5-yl]-N-(1-cyano-1-methyl-ethyl)pyridine-2-carboxamide], the IC50 at TGFβR2 and at FLT3 D835Y was 0.0001 to 10 µM each time.
